From patent US9156801B2, “2-substituted oleanolic acid derivative, method preparing for same, and application thereof” (HANGZHOU BENSHENG PHARMACEUTICAL CO., LTD., priority 2011, dated 2015)
≈ marks a conversion by molar mass, not a printed value.

How the values were obtained:
[1] = system: Hep G2 cell line; experiment: solid tumor cell growth inhibition, MTT; format: cell-based, human; settings: Homo sapiens; for inhibition at 16 µg/mL: HepG2, 72 h, Hep G2, 16 μg/mL compound, 72 h, read-out: IR (cell proliferation inhibition rate); for IC50: HepG2, Hep G2, 72 h
Outline: (§1)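 Growth inhibition by MTT: 4000 cells/well seeded, 24 h pre-culture, then 72 h compound treatment across a concentration range at 37° C, 5% CO2, in DMEM high glucose with 10% FBS.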

[2] = system: A549 cell line; experiment: solid tumor cell growth inhibition, MTT; format: cell-based; settings: Homo sapiens; for IC50: A549, 72 h; for inhibition at 16 µg/mL: A549, 16 μg/mL compound, 72 h, read-out: IR (cell proliferation inhibition rate)
Outline: as §1

[3] = system: CNE cell line; experiment: solid tumor cell growth inhibition, MTT; format: cell-based; settings: Homo sapiens, 72 h; for inhibition at 16 µg/mL: 16 μg/mL compound, read-out: IR (cell proliferation inhibition rate)
Outline: as §1

[4] = system: MGC 803 cell line; experiment: solid tumor cell growth inhibition, MTT; format: cell-based; settings: Homo sapiens; for inhibition at 16 µg/mL: MGC 803, 16 μg/mL compound, 72 h, read-out: IR (cell proliferation inhibition rate); for IC50: MGC 803, 72 h
Outline: as §1

[5] = system: Hela cell line; experiment: solid tumor cell growth inhibition, MTT; format: cell-based; settings: Homo sapiens, 72 h; for IC50: HeLa; for inhibition at 16 µg/mL: Hela, 16 μg/mL compound, read-out: IR (cell proliferation inhibition rate)
Outline: as §1

[6] = system: CaES-17 cell line; experiment: solid tumor cell growth inhibition, MTT; format: cell-based; settings: Homo sapiens, CaEs17; for inhibition at 16 µg/mL: CaES-17, 16 μg/mL compound, 72 h, read-out: IR (cell proliferation inhibition rate); for IC50: CaES-17, 72 h
Outline: as §1

[7] = system: SK-OV-3 cell line; experiment: solid tumor cell growth inhibition, MTT; format: cell-based; settings: Homo sapiens; for IC50: SK-OV-3, 72 h; for inhibition at 16 µg/mL: SK-OV-3, 16 μg/mL compound, 72 h, read-out: IR (cell proliferation inhibition rate)
Outline: as §1

[8] = system: Becap37 cell line; experiment: solid tumor cell growth inhibition, MTT; format: cell-based; settings: Homo sapiens; for inhibition at 16 µg/mL: Becap37, 16 μg/mL compound, 72 h, read-out: IR (cell proliferation inhibition rate); for IC50: Becap37, 72 h
Outline: as §1

[9] = system: MG-63 cell line; experiment: solid tumor cell growth inhibition, MTT; format: cell-based; settings: Homo sapiens; for IC50: MG-63, 72 h; for inhibition at 16 µg/mL: MG-63, 16 μg/mL compound, 72 h, read-out: IR (cell proliferation inhibition rate)
Outline: as §1

[10] = system: U87 MG cell line; experiment: solid tumor cell growth inhibition, MTT; format: cell-based; settings: Homo sapiens, U-87 MG, 72 h; for inhibition at 16 µg/mL: 16 μg/mL compound, read-out: IR (cell proliferation inhibition rate)
Outline: as §1

[11] = system: PC-3 cell line; experiment: solid tumor cell growth inhibition, MTT; format: cell-based; settings: Homo sapiens; for IC50: PC-3, 72 h; for inhibition at 16 µg/mL: PC-3, 16 μg/mL compound, 72 h, read-out: IR (cell proliferation inhibition rate)
Outline: as §1

[12] = system: Hep-2 cell line; experiment: solid tumor cell growth inhibition, MTT; format: cell-based; settings: Homo sapiens; for IC50: HEp-2, 72 h; for inhibition at 16 µg/mL: Hep-2, 16 μg/mL compound, 72 h, read-out: IR (cell proliferation inhibition rate)
Outline: as §1

[13] = system: PANC-1 cell line; experiment: solid tumor cell growth inhibition, MTT; format: cell-based; settings: Homo sapiens; for IC50: PANC-1, 72 h; for inhibition at 16 µg/mL: PANC-1, 16 μg/mL compound, 72 h, read-out: IR (cell proliferation inhibition rate)
Outline: as §1

[14] = system: RKO cell line; experiment: solid tumor cell growth inhibition, MTT; format: cell-based; settings: Homo sapiens, 72 h; for inhibition at 16 µg/mL: 16 μg/mL compound, read-out: IR (cell proliferation inhibition rate)
Outline: as §1

[15] = system: RPMI8226 cell line; experiment: multiple myeloma cell growth inhibition, MTT; format: cell-based; settings: Homo sapiens, RPMI-8226; for inhibition at 16 µg/mL: RPMI8226, 16 μg/mL compound, 72 h, read-out: IR (cell proliferation inhibition rate); for IC50: RPMI8226, 72 h
Outline: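 RPMI8226 cells (6000 per well) in RPMI 1640 with 10% FBS were exposed to several concentrations of compound for 72 h at 37° C and 5% CO2. Viable cells were quantified by MTT, with inhibition set to 0% in untreated controls.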

[16] = system: H9 cell line; experiment: leukemia cell growth inhibition, MTT; format: cell-based; settings: Homo sapiens; for IC50: H9, 72 h; for inhibition at 16 µg/mL: H9, 16 μg/mL compound, 72 h, read-out: IR (cell proliferation inhibition rate)
Outline: (§2)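 6000 cells per well in RPMI 1640 with 10% FBS were exposed to the oleanolic acid derivatives at a range of concentrations for 72 h at 37 °C, 5% CO2. Viable cells were measured by MTT, with untreated control inhibition set at 0%.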

[17] = system: Kasumi-1 cell line; experiment: leukemia cell growth inhibition, MTT; format: cell-based; settings: Homo sapiens; for inhibition at 16 µg/mL: Kasumi-1, 16 μg/mL compound, 72 h, read-out: IR (cell proliferation inhibition rate); for IC50: Kasumi-1, 72 h
Outline: as §2

[18] = system: K562/adr cell line; experiment: leukemia cell growth inhibition, MTT; format: cell-based; settings: Homo sapiens, 72 h; for IC50: K562/Adr; for inhibition at 16 µg/mL: K562/adr, 16 μg/mL compound, read-out: IR (cell proliferation inhibition rate)
Outline: as §2

[19] = system: Jurkat cell line; experiment: leukemia cell growth inhibition, MTT; format: cell-based; settings: Homo sapiens, 72 h; for inhibition at 16 µg/mL: 16 μg/mL compound, read-out: IR (cell proliferation inhibition rate)
Outline: as §2

[20] = system: NB4 cell line; experiment: leukemia cell growth inhibition, MTT; format: cell-based; settings: Homo sapiens, NB-4; for inhibition at 16 µg/mL: NB4, 16 μg/mL compound, 72 h, read-out: IR (cell proliferation inhibition rate); for IC50: NB4, 72 h
Outline: as §2

COC(=O)[C@]12CCC(C)(C)C[C@H]1C1=CC[C@@H]3[C@@]4(C)CC(C(=O)NCC5CC5)C(=O)C(C)(C)[C@@H]4CC[C@@]3(C)[C@]1(C)CC2 (stereo partly drawn) [BS-OA-048]
inhibition at 16 µg/mL [1]: 7.4%
IC50 [1]: > 16 µg/mL
IC50 [2]: > 16 µg/mL
inhibition at 16 µg/mL [2]: -3.8%
inhibition at 16 µg/mL [3]: 21.9%
IC50 [3]: > 16 µg/mL
inhibition at 16 µg/mL [4]: -5.9%
IC50 [4]: > 16 µg/mL
IC50 [5]: > 16 µg/mL
inhibition at 16 µg/mL [5]: 2.4%
inhibition at 16 µg/mL [6]: -18.6%
IC50 [6]: > 16 µg/mL
IC50 [7]: > 16 µg/mL
inhibition at 16 µg/mL [7]: 22%
inhibition at 16 µg/mL [8]: -8.4%
IC50 [8]: > 16 µg/mL
IC50 [9]: > 16 µg/mL
inhibition at 16 µg/mL [9]: -20.3%
inhibition at 16 µg/mL [10]: 5.6%
IC50 [10]: > 16 µg/mL
IC50 [11]: > 16 µg/mL
inhibition at 16 µg/mL [11]: 17.7%
IC50 [12]: > 16 µg/mL
inhibition at 16 µg/mL [12]: -5.3%
IC50 [13]: > 16 µg/mL
inhibition at 16 µg/mL [13]: -17.8%
inhibition at 16 µg/mL [14]: -33.4%
IC50 [14]: > 16 µg/mL
inhibition at 16 µg/mL [15]: 4.9%
IC50 [15]: > 16 µg/mL
IC50 [16]: > 16 µg/mL
inhibition at 16 µg/mL [16]: 28.9%
inhibition at 16 µg/mL [17]: 0.2%
IC50 [17]: > 16 µg/mL
IC50 [18]: > 16 µg/mL
inhibition at 16 µg/mL [18]: 21.4%
inhibition at 16 µg/mL [19]: -21.2%
IC50 [19]: > 16 µg/mL
inhibition at 16 µg/mL [20]: 11%
IC50 [20]: > 16 µg/mL

CCC(C)CNC(=O)C1C[C@@]2(C)C(CC[C@]3(C)C2CC=C2C4CC(C)(C)CC[C@]4(C(=O)OC)CC[C@]23C)C(C)(C)C1=O (stereo partly drawn) [BS-OA-008]
inhibition at 16 µg/mL [1]: 8.1%
IC50 [1]: > 16 µg/mL
IC50 [2]: > 16 µg/mL
inhibition at 16 µg/mL [2]: 3.4%
inhibition at 16 µg/mL [3]: 15.1%
IC50 [3]: > 16 µg/mL
inhibition at 16 µg/mL [4]: -12.4%
IC50 [4]: > 16 µg/mL
IC50 [5]: > 16 µg/mL
inhibition at 16 µg/mL [5]: 0.5%
inhibition at 16 µg/mL [6]: -12.7%
IC50 [6]: > 16 µg/mL
IC50 [7]: > 16 µg/mL
inhibition at 16 µg/mL [7]: 14.3%
inhibition at 16 µg/mL [8]: 2.3%
IC50 [8]: > 16 µg/mL
IC50 [9]: > 16 µg/mL
inhibition at 16 µg/mL [9]: -12.1%
inhibition at 16 µg/mL [10]: 30.1%
IC50 [10]: > 16 µg/mL
IC50 [11]: > 16 µg/mL
inhibition at 16 µg/mL [11]: 12%
IC50 [12]: > 16 µg/mL
inhibition at 16 µg/mL [12]: 3.5%
IC50 [13]: > 16 µg/mL
inhibition at 16 µg/mL [13]: -4.6%
inhibition at 16 µg/mL [14]: -18.6%
IC50 [14]: > 16 µg/mL
inhibition at 16 µg/mL [15]: 30%
IC50 [15]: > 16 µg/mL
IC50 [16]: > 16 µg/mL
inhibition at 16 µg/mL [16]: 39.8%
inhibition at 16 µg/mL [17]: 6.7%
IC50 [17]: > 16 µg/mL
IC50 [18]: 8 µg/mL (≈ 13.7 µM)
inhibition at 16 µg/mL [18]: 70.1%
inhibition at 16 µg/mL [19]: -33.8%
IC50 [19]: > 16 µg/mL
inhibition at 16 µg/mL [20]: 6.3%
IC50 [20]: > 16 µg/mL

CCN(CC)CCCNC(=O)C1C[C@@]2(C)C(CC[C@]3(C)C2CC=C2C4CC(C)(C)CC[C@]4(C(=O)O)CC[C@]23C)C(C)(C)C1=O (stereo partly drawn) [BS-OA-108]
inhibition at 16 µg/mL [1]: 42.3%
IC50 [1]: > 16 µg/mL
IC50 [2]: > 16 µg/mL
inhibition at 16 µg/mL [2]: 27.5%
inhibition at 16 µg/mL [3]: 42.7%
IC50 [3]: > 16 µg/mL
inhibition at 16 µg/mL [4]: 13.1%
IC50 [4]: > 16 µg/mL
IC50 [5]: > 16 µg/mL
inhibition at 16 µg/mL [5]: 43%
inhibition at 16 µg/mL [6]: 32%
IC50 [6]: > 16 µg/mL
IC50 [7]: > 16 µg/mL
inhibition at 16 µg/mL [7]: -15.6%
inhibition at 16 µg/mL [8]: 38.4%
IC50 [8]: > 16 µg/mL
IC50 [9]: > 16 µg/mL
inhibition at 16 µg/mL [9]: 47.4%
inhibition at 16 µg/mL [10]: 18.5%
IC50 [10]: > 16 µg/mL
IC50 [11]: > 16 µg/mL
inhibition at 16 µg/mL [11]: -8.2%
IC50 [12]: > 16 µg/mL
inhibition at 16 µg/mL [12]: 22.7%
IC50 [13]: > 16 µg/mL
inhibition at 16 µg/mL [13]: 21.6%
inhibition at 16 µg/mL [14]: 63.2%
IC50 [14]: 14.3 µg/mL (≈ 23.4 µM)
inhibition at 16 µg/mL [15]: 97.3%
IC50 [15]: 6.4 µg/mL (≈ 10.5 µM)
IC50 [16]: 15.3 µg/mL (≈ 25 µM)
inhibition at 16 µg/mL [16]: 57.7%
inhibition at 16 µg/mL [17]: 74.5%
IC50 [17]: 10.2 µg/mL (≈ 16.6 µM)
IC50 [18]: 4.83 µg/mL (≈ 7.91 µM)
inhibition at 16 µg/mL [18]: 96.1%
inhibition at 16 µg/mL [19]: 66.5%
IC50 [19]: 12.6 µg/mL (≈ 20.6 µM)
inhibition at 16 µg/mL [20]: 92.4%
IC50 [20]: 6.86 µg/mL (≈ 11.2 µM)
